# Source: publication PMC7250802, “Initial Evaluation of AF78: a Rationally Designed Fluorine-18-Labelled PET Radiotracer Targeting Norepinephrine Transporter” (Molecular Imaging and Biology, 2019)
# Target: T1, norepinephrine transporter (NET) (Homo sapiens, UniProt P23975)
# T1 construct: gene SLC6A2
# Test: competitive inhibition of […]AF78 uptake in SK-N-SH cells ([…] against […]MIBG)
# Format: cell-based
# T1 sequence (P23975 whole entry): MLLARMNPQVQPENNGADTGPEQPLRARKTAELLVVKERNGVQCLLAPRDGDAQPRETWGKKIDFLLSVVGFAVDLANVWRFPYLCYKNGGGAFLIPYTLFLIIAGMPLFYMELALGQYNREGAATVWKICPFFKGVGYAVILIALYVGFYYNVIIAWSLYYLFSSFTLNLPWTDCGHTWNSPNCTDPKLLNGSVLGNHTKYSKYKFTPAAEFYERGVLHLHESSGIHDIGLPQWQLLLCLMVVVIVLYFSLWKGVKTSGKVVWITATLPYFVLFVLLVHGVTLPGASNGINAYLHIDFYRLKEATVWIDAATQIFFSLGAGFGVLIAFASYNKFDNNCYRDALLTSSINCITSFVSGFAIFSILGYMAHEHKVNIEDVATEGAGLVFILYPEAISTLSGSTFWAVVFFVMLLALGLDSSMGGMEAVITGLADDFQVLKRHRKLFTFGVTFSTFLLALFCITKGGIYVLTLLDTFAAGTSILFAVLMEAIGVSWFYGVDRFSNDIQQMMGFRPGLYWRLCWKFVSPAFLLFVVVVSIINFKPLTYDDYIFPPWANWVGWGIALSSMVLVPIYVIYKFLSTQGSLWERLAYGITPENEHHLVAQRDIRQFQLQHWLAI
smiles,measurement,value
"N=C(N)NCCc1ccc(F)c(O)c1 [4F-MHPG, 4-[^18F]fluoro-3-hydroxyphenethylguanidine]",IC50,850 ± 630 nM
